Laboratory results as given in ChEMBL document CHEMBL3244039, “Antiviral activity of some beta-diketones. 2. Aryloxy alkyl diketones. In vitro activity against both RNA and DNA viruses” (1977).
Values after ≈ are worked out from the molar mass of the structure shown. Active and inactive are the calls of the source. No cut-off for these calls is given here.

tested on: rhinovirus B14; test: Antiviral activity against Human rhinovirus 14 assessed as inhibition of virus-induced cytopathic effect at 37 degC after 72 hrs by two-fold dilution method; type: functional; details: Rhinovirus B

Row | Structure (SMILES) | MIC
1 | CCC(=O)C(CCCCCCOc1ccc(OC)cc1Cl)C(=O)CC [ARILDONE] | 1.5 µg/mL (≈ 4.07 µM)

tested on: Influenza A virus; test: Antiviral activity against Influenza A2 virus Jap 170 infected in ferret trachea assessed as reduction in viral yield at 400 ug/ml after 3 days followed by compound-washout measured after 24 hrs by chick embryo-based hemagglutination titration method relative to control; type: functional; set-up: scale not given: the % may be the effect or the level left; details: not given

Row | Structure (SMILES) | Activity
2 | CCC(=O)C(CCCCCCOc1ccc(OC)cc1Cl)C(=O)CC [ARILDONE] | 99.9%

tested on: Human alphaherpesvirus 2; test: Antiviral activity against Herpes simplex virus 2 assessed as inhibition of virus-induced cytopathic effect at 50 ug/ml after 72 hrs by two-fold dilution method; type: functional, organism-based; details: not given

Row | Structure (SMILES) | inhibition
3 | CCC(=O)C(CCCCOc1ccc(OC)cc1Cl)C(=O)CC | inactive
4 | CCC(=O)C(CCCCCCOc1ccc(SC)cc1)C(=O)CC | inactive
5 | CCC(=O)C(CCCCCCOc1ccc(C(=O)O)cc1)C(=O)CC | inactive
6 | CCC(=O)C(CCCCCCOc1ccc(OC(=O)c2ccc(OC)cc2)cc1)C(=O)CC | inactive
7 | CCC(=O)C(CCCCCCOc1ccc(OC(C)=O)cc1Cl)C(=O)CC | inactive
8 | CCC(=O)C(CCCCCCCCOc1ccc2c(c1)OCO2)C(=O)CC | inactive
9 | CCC(=O)C(CCCCCCOc1ccc(Cl)cc1)C(=O)CC | inactive
10 | CCC(=O)C(CCCCOc1ccc2c(c1)OCO2)C(=O)CC | inactive
11 | CCC(=O)C(CCCCCOc1ccc2c(c1)OCO2)C(=O)CC | inactive
12 | CCC(=O)C(CCCCCCOc1cccc(N(C)C)c1)C(=O)CC | inactive
13 | CCC(=O)C(CCCCCCOc1ccc(OC(=O)c2ccc(C)cc2)cc1)C(=O)CC | inactive
14 | CCC(=O)C(CCCCCCOc1cccc([N+](=O)[O-])c1)C(=O)CC | inactive
15 | CCC(=O)C(CCCCCCCOc1ccc2c(c1)OCO2)C(=O)CC | inactive
16 | CCC(=O)C(CCCCCCOc1ccccc1I)C(=O)CC | inactive
17 | CCC(=O)C(CCCCCCOc1ccc2c(c1)OCO2)C(=O)CC | inactive
18 | CCOC(=O)C(CCCCCCOc1ccc(OC)cc1Cl)C(C)=O (stereo not drawn) | inactive
19 | CCC(=O)C(CCCCCCOc1ccc(OCCN(CC)CC)cc1)C(=O)CC | inactive
20 | CCC(=O)C(CCCOc1ccc2c(c1)OCO2)C(=O)CC | inactive
21 | CCC(=O)C(CCCCCCOc1cccc(C(F)(F)F)c1)C(=O)CC | inactive
22 | CCC(=O)C(CCCCCCOc1c(Cl)c(Cl)c(Cl)c(Cl)c1Cl)C(=O)CC | inactive
23 | CCC(=O)C(CCCCCCOc1ccc(C#N)cc1)C(=O)CC | inactive
24 | CCC(=O)C(CCCCCCOc1ccc(OC(=O)c2ccccc2)cc1)C(=O)CC | inactive

tested on: Human alphaherpesvirus 1; test: Antiviral activity against Herpes simplex virus 1 Sheely assessed as inhibition of virus-induced cytopathic effect at 37 degC after 72 hrs by two-fold dilution method; type: functional; details: Human alphaherpesvirus 1, Sheely

Row | Structure (SMILES) | MIC
25 | O=c1[nH]c(=O)n([C@H]2C[C@H](O)[C@@H](CO)O2)cc1I [IDOXURIDINE] | 6 µg/mL (≈ 16.9 µM)
26 | Nc1ccn([C@@H]2O[C@H](CO)[C@@H](O)[C@@H]2O)c(=O)n1 [CYTARABINE] | < 3 µg/mL
27 | CCC(=O)C(CCCCCCOc1ccc(OC)cc1Cl)C(=O)CC [ARILDONE] | 6 µg/mL (≈ 16.3 µM)
28 | Nc1ncnc2c1ncn2[C@@H]1O[C@H](CO)[C@@H](O)[C@@H]1O [VIDARABINE] | 12 µg/mL (≈ 44.9 µM)

tested on: Influenza A virus; test: Antiviral activity against Influenza A2 virus Jap 170 infected in ferret trachea assessed as reduction in viral yield at 200 ug/ml after 3 days followed by compound-washout measured after 24 hrs by chick embryo-based hemagglutination titration method relative to control v; type: functional; set-up: scale not given: the % may be the effect or the level left; details: not given

Row | Structure (SMILES) | Activity
29 | CCC(=O)C(CCCCCCOc1ccc(OC)cc1Cl)C(=O)CC [ARILDONE] | 90%

tested on: not listed separately; test: Antiviral activity against Human rhinovirus 17 assessed as inhibition of virus-induced cytopathic effect at 37 degC after 72 hrs by two-fold dilution method; type: functional, Human rhinovirus B17; details: Rhinovirus B

Row | Structure (SMILES) | MIC
30 | CCC(=O)C(CCCCCCOc1ccc(OC)cc1Cl)C(=O)CC [ARILDONE] | 3 µg/mL (≈ 8.13 µM)

tested on: Human alphaherpesvirus 2; test: Antiviral activity against Herpes simplex virus 2 assessed as inhibition of virus-induced cytopathic effect after 72 hrs by two-fold dilution method; type: functional; details: Human alphaherpesvirus 2, 72 h

Row | Structure (SMILES) | MIC
31 | CCC(=O)C(CCCCCCOc1ccc([N+](=O)[O-])cc1Cl)C(=O)CC | 3 µg/mL (≈ 7.82 µM)
32 | CCC(=O)C(CCCCCOc1ccc(OC)cc1Cl)C(=O)CC | 6 µg/mL (≈ 16.9 µM)
33 | CCC(=O)C(CCCCCCOc1ccc(O)cc1Cl)C(=O)CC | 6 µg/mL (≈ 16.9 µM)
34 | CCC(=O)C(CCCCCCOc1ccc(OC)cc1Br)C(=O)CC | 6 µg/mL (≈ 14.5 µM)
35 | CCC(=O)C(CCCCCCOc1ccc(OC)cc1)C(=O)CC | 25 µg/mL (≈ 74.7 µM)
36 | COc1ccc(OCCCCCCC(C(=O)C(C)(C)C)C(=O)C(C)(C)C)c(Cl)c1 | 6 µg/mL (≈ 14.1 µM)
37 | CCC(=O)C(CCCCCCOc1ccc(OC)cc1Cl)C(=O)CC [ARILDONE] | 6 µg/mL (≈ 16.3 µM)

tested on: Equine rhinovirus; test: Antiviral activity against Equine rhinovirus infected in rhesus monkey trachea assessed as reduction in viral yield at 400 ug/ml after 3 days followed by compound-washout measured after 24 hrs by human CATR cell-based titration method relative to control; set-up: scale not given: the % may be the effect or the level left; details: not given

Row | Structure (SMILES) | Activity
38 | CCC(=O)C(CCCCCCOc1ccc(OC)cc1Cl)C(=O)CC [ARILDONE] | 99.5%

tested on: Equine rhinovirus; test: Antiviral activity against Equine rhinovirus infected in rhesus monkey trachea assessed as reduction in viral yield at 200 ug/ml after 3 days followed by compound-washout measured after 24 hrs by human CATR cell-based titration method relative to control; set-up: scale not given: the % may be the effect or the level left; details: not given

Row | Structure (SMILES) | Activity
39 | CCC(=O)C(CCCCCCOc1ccc(OC)cc1Cl)C(=O)CC [ARILDONE] | 98%

tested on: Respiratory syncytial virus; test: Antiviral activity against Respiratory syncytial virus assessed as inhibition of virus-induced cytopathic effect at 37 degC after 72 hrs by two-fold dilution method; type: functional; details: human respiratory syncytial virus

Row | Structure (SMILES) | MIC
40 | CCC(=O)C(CCCCCCOc1ccc(OC)cc1Cl)C(=O)CC [ARILDONE] | 3 µg/mL (≈ 8.13 µM)

tested on: Human alphaherpesvirus 2; test: Antiviral activity against Herpes simplex virus 2 Curtis assessed as inhibition of virus-induced cytopathic effect at 37 degC after 72 hrs by two-fold dilution method; type: functional; details: Human alphaherpesvirus 2, Curtis

Row | Structure (SMILES) | MIC
41 | O=c1[nH]c(=O)n([C@H]2C[C@H](O)[C@@H](CO)O2)cc1I [IDOXURIDINE] | 6 µg/mL (≈ 16.9 µM)
42 | Nc1ccn([C@@H]2O[C@H](CO)[C@@H](O)[C@@H]2O)c(=O)n1 [CYTARABINE] | < 3 µg/mL
43 | CCC(=O)C(CCCCCCOc1ccc(OC)cc1Cl)C(=O)CC [ARILDONE] | 6 µg/mL (≈ 16.3 µM)
44 | Nc1ncnc2c1ncn2[C@@H]1O[C@H](CO)[C@@H](O)[C@@H]1O [VIDARABINE] | 12 µg/mL (≈ 44.9 µM)

tested on: Human alphaherpesvirus 1; test: Antiviral activity against Herpes simplex virus 1 assessed as inhibition of virus-induced cytopathic effect at 37 degC after 72 hrs by two-fold dilution method; type: functional; details: Human alphaherpesvirus 1, 72 h

Row | Structure (SMILES) | MIC
45 | CCC(=O)C(CCCCCCOc1ccc(OC)cc1Cl)C(=O)CC [ARILDONE] | 6 µg/mL (≈ 16.3 µM)

tested on: rhinovirus A2; test: Antiviral activity against Human rhinovirus 2 assessed as inhibition of virus-induced cytopathic effect at 37 degC after 72 hrs by two-fold dilution method; type: functional; details: Rhinovirus A

Row | Structure (SMILES) | MIC
46 | CCC(=O)C(CCCCCCOc1ccc(OC)cc1Cl)C(=O)CC [ARILDONE] | 0.7 µg/mL (≈ 1.9 µM)

tested on: unidentified influenza virus; test: Antiviral activity against Parainfluenza virus assessed as inhibition of virus-induced cytopathic effect at 37 degC after 72 hrs by two-fold dilution method; type: functional; details: not given

Row | Structure (SMILES) | MIC
47 | CCC(=O)C(CCCCCCOc1ccc(OC)cc1Cl)C(=O)CC [ARILDONE] | 1.5 µg/mL (≈ 4.07 µM)

tested on: Equine rhinovirus; test: Antiviral activity against Equine rhinovirus assessed as inhibition of virus-induced cytopathic effect after 48 hrs by two-fold dilution method; details: not given

Row | Structure (SMILES) | MIC
48 | CCC(=O)C(CCCCCCOc1ccc([N+](=O)[O-])cc1Cl)C(=O)CC | 3 µg/mL (≈ 7.82 µM)
49 | CCC(=O)C(CCCCCOc1ccc(OC)cc1Cl)C(=O)CC | 6 µg/mL (≈ 16.9 µM)
50 | CCC(=O)C(CCCCCCOc1ccc(OC)cc1Br)C(=O)CC | 3 µg/mL (≈ 7.26 µM)
51 | CCC(=O)C(CCCCCCOc1ccc(OC)cc1)C(=O)CC | 6 µg/mL (≈ 17.9 µM)
52 | CCC(=O)C(CCCCCCOc1ccc(SC)cc1)C(=O)CC | 3 µg/mL (≈ 8.56 µM)
53 | CCC(=O)C(CCCCCCOc1ccc(C(=O)O)cc1)C(=O)CC | 6 µg/mL (≈ 17.2 µM)
54 | CCC(=O)C(CCCCCCOc1ccc(OC(=O)c2ccc(OC)cc2)cc1)C(=O)CC | 6 µg/mL (≈ 13.2 µM)
55 | CCC(=O)C(CCCCCCOc1ccc(OC(C)=O)cc1Cl)C(=O)CC | 12 µg/mL (≈ 30.2 µM)
56 | CCC(=O)C(CCCCCCOc1ccc(Cl)cc1)C(=O)CC | 3 µg/mL (≈ 8.85 µM)
57 | CCC(=O)C(CCCCOc1ccc2c(c1)OCO2)C(=O)CC | 12 µg/mL (≈ 37.5 µM)
58 | CCC(=O)C(CCCCCCOc1cccc(N(C)C)c1)C(=O)CC | 6 µg/mL (≈ 17.3 µM)
59 | CCC(=O)C(CCCCCCOc1ccc(OC)cc1Cl)C(=O)CC [ARILDONE] | 1.5 µg/mL (≈ 4.07 µM)
60 | CCC(=O)C(CCCCCCOc1ccc(OC(=O)c2ccc(C)cc2)cc1)C(=O)CC | 12 µg/mL (≈ 27.4 µM)
61 | CCC(=O)C(CCCCCCOc1cccc([N+](=O)[O-])c1)C(=O)CC | 3 µg/mL (≈ 8.59 µM)
62 | CCC(=O)C(CCCCCCCOc1ccc2c(c1)OCO2)C(=O)CC | 6 µg/mL (≈ 16.6 µM)
63 | CCC(=O)C(CCCCCCOc1ccccc1I)C(=O)CC | 12 µg/mL (≈ 27.9 µM)
64 | CCC(=O)C(CCCCCCOc1ccc2c(c1)OCO2)C(=O)CC | 3 µg/mL (≈ 8.61 µM)
65 | CCOC(=O)C(CCCCCCOc1ccc(OC)cc1Cl)C(C)=O (stereo not drawn) | 6 µg/mL (≈ 16.2 µM)
66 | CCC(=O)C(CCCCCCOc1ccc(OCCN(CC)CC)cc1)C(=O)CC | 25 µg/mL (≈ 59.6 µM)
67 | CCC(=O)C(CCCCCCOc1c(Cl)c(Cl)c(Cl)c(Cl)c1Cl)C(=O)CC | 12 µg/mL (≈ 25.2 µM)

tested on: Equine rhinovirus; test: Antiviral activity against Equine rhinovirus infected in rhesus monkey trachea assessed as reduction in viral yield at 100 ug/ml after 3 days followed by compound-washout measured after 24 hrs by human CATR cell-based titration method relative to control v; set-up: scale not given: the % may be the effect or the level left; details: not given

Row | Structure (SMILES) | Activity
68 | CCC(=O)C(CCCCCCOc1ccc(OC)cc1Cl)C(=O)CC [ARILDONE] | 70%
